From article PMC9482650, “Quantitative fragmentomics allow affinity mapping of interactomes” (Nature Communications, 2022)
Ends that are not written are not given here. * marks the point of attachment. Biotin = O=C1N[C@H]2[C@H](CS[C@H]2CCCCC(=O)*)N1; ttds = NCCCOCCOCCOCCCNC(=O)CCC(=O)*

Legend:
Assay type in all cases: binding, human
[1] = target: PDZ-proteins; assay: Estimated PPI affinity, additive association constants of all PDZ sites;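 also: calculated estimate, not directly measured: domain-motif affinities from holdup assays, association constants summed over all PDZ sites, one motif bound at a time, weak interactions ignored, giving a lower limit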
Source text: We used the previously generated domain-motif interactome, consisting of the composite affinities (i.e., taken from the most reliable holdup method; see above) to estimate affinities of PPIs. We assumed that a multidomain PDZ-protein can only interact with a single PBM at the same time (Eq. (4)):4 PDZ+PBM⇌(PDZ−PBM)site1,or(PDZ−PBM)site2,or(PDZ−PBM)siten
Using this approximation, as proposed by others before[45], the association constant of a multi-site interaction is the sum of the association constants of all sites (Eq. (5)):5 Ka,additive=[PDZ−PBM]site1+[PDZ−PBM]site2+…+[PDZ−PBM]siten/[PDZ]×[PBM]=∑Ka,site
The contribution of unmeasurable weak interactions was also neglected in the calculations.

[2] = tested on: HaCat cell extract preys; assay: PBM-AP-MS, PBM peptide baits
Experimental: (§1) HEK293T and HeLa cells were authenticated and found 100% identity to ATCC cat. CRL-3216 and ATCC cat. CCL-2, respectively. Jurkat and HaCat cell lines were not authenticated (original source: ECACC and Deutsches Krebsforschungszentrum DKFZ, respectively). HeLa cells were grown in DMEM (1 g/L glucose, Gibco) medium completed with 5% FCS and 40 μg/mL gentamicin, diluted every 3rd/4th day 1/10. HaCat cells were grown in DMEM (1 g/L glucose, Gibco) medium completed with 10% FCS and 40 μg/mL gentamicin, diluted every 3rd/4th day 1/4. Jurkat cells were grown in RPMI (Gibco) medium completed with 10% FCS and 40 μg/mL gentamicin, diluted every 3rd/4th day 1/12. All cells were kept at 37 °C and 5% CO2. For proteomics analyses cells were seeded on T-175 flasks. After they reached confluency, adherent cells were washed with PBS once and collected by scraping with ice-cold lysis buffer (Hepes-KOH pH 7.5 50 mM, NaCl 150 mM, Triton X-100 1%, complete EDTA-free protease inhibitor cocktail 1×, EDTA 2 mM, TCEP 5 mM, glycerol 10%). Jurkat cells were collected by 1000 g × centrifugation, washed once with PBS, then collected by 1000 g × 5 min centrifugation again and lysed in ice-cold lysis buffer. Lysates were sonicated 4 × 20 s with 1 s long pulses on ice, then incubated rotating at 4 °C for 30 min. Lysates were centrifuged at 12,000 rpm 4 °C for 20 min and supernatant was kept for further analysis. Concentration determination was carried out by standard Bradford method (Bio-Rad Protein Assay Dye Reagent #5000006) using BSA (MP BIomedicals #160069) as control on a Bio-Rad SmartSpec 3000 spectrophotometer instrument.
(§2) For PBM-AP-MS experiments, 30 μl streptavidin resin was mixed with biotin or peptide at 50–60 μM concentration in 6–6.5 resin volume for 60 min to achieve resin saturation. For PDZ-AP-MS experiments, 30 μl streptavidin resin was mixed with biotinylated MBP or MBP-PDZ at 40-50 μM concentration in >1000× resin volume for 60 min to achieve resin saturation. After saturation, resins were washed a single time (ten resin volume, holdup buffer), and were depleted with biotin (1 mM biotin, 5–10 resin volume, 10 min). Finally, resins were washed two times. 0.5 ml 2 mg/ml cell lysate was added to the dry resin (1 mg total input) and were incubated at 4 °C for 2 h. Then, the beads were washed three times with 10 resin volume buffer containing: 50 mM TRIS pH 8.5, 150 mM NaCl, 1% TritonX-100, 10× complete EDTA-free protease inhibitor cocktail, 2 mM EDTA, 1 mM TCEP. Then, the beads were washed two times with ten resin volume buffer containing: 50 mM TRIS pH 8.5, 150 mM NaCl, 1 mM TCEP. Finally, captured protein was eluted from the resin in two steps and the eluted fractions were pooled. For each elution the beads were incubated for 30 min with three resin volume buffer containing: 20 mM TRIS pH8.5, 100 mM NaCl, 500 μM TCEP, 8 M Urea. Between each step, the beads were separated by mild centrifugation and the supernatant was removed by gentle pipetting.
(§3) The samples were precipitated with TCA 20% overnight at 4 °C and centrifuged at 14,000 rpm for 10 min at 4 °C. The protein pellets were washed twice with 1 mL cold acetone and air dried. The protein extracts were solubilized in urea 8 M, reduced with 5 mM TCEP for 30 min, and alkylated with 10 mM iodoacetamide for 30 min in the dark. Double digestion was performed at 37 °C with 500 ng endoproteinase Lys-C for 4 h, followed by fourfold dilution and an overnight digestion with 500 ng trypsin. Peptide mixtures were then desalted on C18 spin-column and dried on Speed-Vacuum.
(§4) Samples were analyzed using an Ultimate 3000 nano-RSLC (Thermo Scientific, San Jose California) coupled in line with a LTQ-Orbitrap ELITE mass spectrometer via a nano-electrospray ionization source (Thermo Scientific, San Jose California). […]

[3] = tested on: Jurkat cell extract preys; assay: PBM-AP-MS, PBM peptide baits
Experimental: as §1, §2, §3, §4

HPV35E6 ({Biotin-ttds}-SKPTRRETEV)
final additive pKd ([1]; PDZ-protein AHNAK): 3.5
final additive pKd ([1]; PDZ-protein CASK): 3.5
final additive pKd ([1]; PDZ-protein DLG1): 5.779
final additive pKd ([1]; PDZ-protein InaDl): 3.5
final additive pKd ([1]; PDZ-protein LAP2): 3.6933
final additive pKd ([1]; PDZ-protein LIN7C): 3.759
final additive pKd ([1]; PDZ-protein LNX2): 3.5
final additive pKd ([1]; PDZ-protein MAGI3): 5.407
final additive pKd ([1]; PDZ-protein MPP5): 3.5
final additive pKd ([1]; PDZ-protein MPP6): 3.5
final additive pKd ([1]; PDZ-protein MPP7): 3.5
final additive pKd ([1]; PDZ-protein NHERF2): 3.774
final additive pKd ([1]; PDZ-protein PDLIM2): 3.5
final additive pKd ([1]; PDZ-protein PDLIM5): 3.5
final additive pKd ([1]; PDZ-protein PDLIM7): 3.5
final additive pKd ([1]; PDZ-protein PSMD9): 3.5
final additive pKd ([1]; PDZ-protein SCRIB): 5.233
final additive pKd ([1]; PDZ-protein SNTB1): 4.679
final additive pKd ([1]; PDZ-protein SNX27): 4.662
final additive pKd ([1]; PDZ-protein SYNJ2BP): 5.6853
final additive pKd ([1]; PDZ-protein TX1B3): 4.927
Enrichment values compared to biotin controls ([2]; prey AHNAK2, PBM peptide bait): 0.845
Enrichment values compared to biotin controls ([2]; prey AHNAK, PBM peptide bait): 0.7
Enrichment values compared to biotin controls ([2]; prey DLG1, PBM peptide bait): 5.3
Enrichment values compared to biotin controls ([2]; prey GORASP2, PBM peptide bait): 0.7
Enrichment values compared to biotin controls ([2]; prey InaDl, PBM peptide bait): 0.6
Enrichment values compared to biotin controls ([2]; prey LAP2, PBM peptide bait): 0.849
Enrichment values compared to biotin controls ([2]; prey LIN7C, PBM peptide bait): 269.9
Enrichment values compared to biotin controls ([2]; prey MAGI3, PBM peptide bait): 4.3
Enrichment values compared to biotin controls ([2]; prey MPP5, PBM peptide bait): 0.7
Enrichment values compared to biotin controls ([2]; prey MPP6, PBM peptide bait): 0.8
Enrichment values compared to biotin controls ([2]; prey MPP7, PBM peptide bait): 30.8
Enrichment values compared to biotin controls ([2]; prey NHERF2, PBM peptide bait): 0.665
Enrichment values compared to biotin controls ([2]; prey NHERF, PBM peptide bait): 0.215
Enrichment values compared to biotin controls ([2]; prey PDLIM1, PBM peptide bait): 0.569
Enrichment values compared to biotin controls ([2]; prey PDLIM2, PBM peptide bait): 1.6
Enrichment values compared to biotin controls ([2]; prey PDLIM4, PBM peptide bait): 1.0
Enrichment values compared to biotin controls ([2]; prey PDLIM5, PBM peptide bait): 1.1
Enrichment values compared to biotin controls ([2]; prey PDLIM7, PBM peptide bait): 0.422
Enrichment values compared to biotin controls ([2]; prey PTPN3, PBM peptide bait): 0.9
Enrichment values compared to biotin controls ([2]; prey SCRIB, PBM peptide bait): 3.1
Enrichment values compared to biotin controls ([2]; prey SNTB2, PBM peptide bait): 7.5
Enrichment values compared to biotin controls ([2]; prey SNX27, PBM peptide bait): 3.3
Enrichment values compared to biotin controls ([2]; prey SYNJ2BP, PBM peptide bait): 25.2
Fold changes HaCat, SYNJ2BP ([2]; prey SYNJ2BP, PBM peptide bait): 25.2
Enrichment values compared to biotin controls ([2]; prey TJP1, PBM peptide bait): 1.3
Enrichment values compared to biotin controls ([2]; prey TJP2, PBM peptide bait): 1.8
Enrichment values compared to biotin controls ([2]; prey TX1B3, PBM peptide bait): 3.3
Enrichment values compared to biotin controls ([3]; prey APBA1, PBM peptide bait): 2.9
Enrichment values compared to biotin controls ([3]; prey DLG4, PBM peptide bait): 3.9
Enrichment values compared to biotin controls ([3]; prey DVL2, PBM peptide bait): 1.1
Enrichment values compared to biotin controls ([3]; prey GOPC, PBM peptide bait): 1.3
Enrichment values compared to biotin controls ([3]; prey InaDl, PBM peptide bait): 0.9
Enrichment values compared to biotin controls ([3]; prey LAP2, PBM peptide bait): 2.0
Enrichment values compared to biotin controls ([3]; prey LNX2, PBM peptide bait): 0.8
Enrichment values compared to biotin controls ([3]; prey MAGI3, PBM peptide bait): 3.7
Enrichment values compared to biotin controls ([3]; prey MPP1, PBM peptide bait): 1.3
Enrichment values compared to biotin controls ([3]; prey MPP5, PBM peptide bait): 1.4
Enrichment values compared to biotin controls ([3]; prey MPP6, PBM peptide bait): 1.4
Enrichment values compared to biotin controls ([3]; prey MPP7, PBM peptide bait): 2.9
Enrichment values compared to biotin controls ([3]; prey MYO18A, PBM peptide bait): 0.9
Enrichment values compared to biotin controls ([3]; prey PDLIM2, PBM peptide bait): 1.7
Enrichment values compared to biotin controls ([3]; prey PDLIM5, PBM peptide bait): 0.851
Enrichment values compared to biotin controls ([3]; prey PDLIM7, PBM peptide bait): 1.2
Enrichment values compared to biotin controls ([3]; prey PDZD11, PBM peptide bait): 1.8
Enrichment values compared to biotin controls ([3]; prey PSMD9, PBM peptide bait): 0.748
Enrichment values compared to biotin controls ([3]; prey SIPA1L1, PBM peptide bait): 1.1
Enrichment values compared to biotin controls ([3]; prey SIPA1L2, PBM peptide bait): 1.1
Enrichment values compared to biotin controls ([3]; prey SNTB1, PBM peptide bait): 5.0
Enrichment values compared to biotin controls ([3]; prey SNTB2, PBM peptide bait): 1.1
Enrichment values compared to biotin controls ([3]; prey SNX27, PBM peptide bait): 2.9
Enrichment values compared to biotin controls ([3]; prey SYNJ2BP, PBM peptide bait): 12.5
Enrichment values compared to biotin controls ([3]; prey TX1B3, PBM peptide bait): 4.1
